The text below walks through data of ChEMBL document CHEMBL4371069, “Click chemistry for improvement in selectivity of quinazoline-based kinase inhibitors for mutant epidermal growth factor receptors” (Bioorg Med Chem Lett, 2019).

Series [1] deals with T1, CYP2C8 (Homo sapiens, UniProt P10632).
T1 sequence (P10632 whole entry): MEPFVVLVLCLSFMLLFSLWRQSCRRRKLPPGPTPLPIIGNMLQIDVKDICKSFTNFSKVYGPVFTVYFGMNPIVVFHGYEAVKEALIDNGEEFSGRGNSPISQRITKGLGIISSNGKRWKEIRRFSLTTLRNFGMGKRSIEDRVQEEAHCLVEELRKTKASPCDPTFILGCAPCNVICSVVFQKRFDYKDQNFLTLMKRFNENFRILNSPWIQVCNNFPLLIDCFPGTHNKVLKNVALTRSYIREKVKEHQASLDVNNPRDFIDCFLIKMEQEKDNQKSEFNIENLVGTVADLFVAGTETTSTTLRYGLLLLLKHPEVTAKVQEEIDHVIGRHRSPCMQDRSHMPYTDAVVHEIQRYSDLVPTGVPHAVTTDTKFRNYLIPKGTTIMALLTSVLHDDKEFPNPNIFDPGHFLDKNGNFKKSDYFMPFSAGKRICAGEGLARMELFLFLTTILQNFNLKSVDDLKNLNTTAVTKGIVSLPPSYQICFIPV
Description: Inhibition of CYP2C8 in human liver microsomes assessed as residual activity at 10 uM using amiodiaquine as substrate preincubated for 5 mins followed by NADPH addition and measured after 15 mins by LC-MS/MS analysis relative to control. It counts as ADME. To be noted: probe amiodiaquine, read-out: Activity.

Series [2] addresses CYP2C9 (Homo sapiens, UniProt P11712). Description: Inhibition of CYP2C9 in human liver microsomes assessed as residual activity at 10 uM using tolbutamide as substrate preincubated for 5 mins followed by NADPH addition and measured after 15 mins by LC-MS/MS analysis relative to control. Format: ADME. To be noted: probe tolbutamide, read-out: Activity.
The target in series [3] is CYP2E1 (Homo sapiens, UniProt P05181). Description: Inhibition of CYP2E1 in human liver microsomes assessed as residual activity at 10 uM using chlorzoxazone as substrate preincubated for 5 mins followed by NADPH addition and measured after 15 mins by LC-MS/MS analysis relative to control. Format: ADME. The conditions noted are these: probe chlorzoxazone, read-out: Activity.
Chain of CYP2E1 (P05181 whole entry): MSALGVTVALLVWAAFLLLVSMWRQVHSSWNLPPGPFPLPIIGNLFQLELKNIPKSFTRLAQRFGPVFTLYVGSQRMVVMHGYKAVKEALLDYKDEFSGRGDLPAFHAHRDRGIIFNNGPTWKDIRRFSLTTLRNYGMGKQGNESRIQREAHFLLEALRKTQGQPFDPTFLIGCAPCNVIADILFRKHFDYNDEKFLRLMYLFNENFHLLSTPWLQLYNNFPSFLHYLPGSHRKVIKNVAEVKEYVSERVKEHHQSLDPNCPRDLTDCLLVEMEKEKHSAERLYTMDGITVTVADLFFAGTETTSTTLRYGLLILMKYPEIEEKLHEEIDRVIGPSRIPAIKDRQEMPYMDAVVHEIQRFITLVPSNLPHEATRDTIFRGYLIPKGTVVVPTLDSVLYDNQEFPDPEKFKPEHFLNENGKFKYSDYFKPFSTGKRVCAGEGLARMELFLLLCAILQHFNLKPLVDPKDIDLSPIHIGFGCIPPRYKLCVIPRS

Series [4] concerns the target Epidermal growth factor receptor (Homo sapiens, UniProt P00533). It counts as ADME, cell-based, Sf21.
Description: Inhibition of human N-terminal GST-tagged EGFR kinase domain (696 to end residues) expressed in baculovirus infected sf21 cells using poly(Glu, Tyr) 4:1 as substrate
Series [5] concerns the target T2, CYP2A6 (Homo sapiens, UniProt P11509).
T2 sequence (P11509 whole entry): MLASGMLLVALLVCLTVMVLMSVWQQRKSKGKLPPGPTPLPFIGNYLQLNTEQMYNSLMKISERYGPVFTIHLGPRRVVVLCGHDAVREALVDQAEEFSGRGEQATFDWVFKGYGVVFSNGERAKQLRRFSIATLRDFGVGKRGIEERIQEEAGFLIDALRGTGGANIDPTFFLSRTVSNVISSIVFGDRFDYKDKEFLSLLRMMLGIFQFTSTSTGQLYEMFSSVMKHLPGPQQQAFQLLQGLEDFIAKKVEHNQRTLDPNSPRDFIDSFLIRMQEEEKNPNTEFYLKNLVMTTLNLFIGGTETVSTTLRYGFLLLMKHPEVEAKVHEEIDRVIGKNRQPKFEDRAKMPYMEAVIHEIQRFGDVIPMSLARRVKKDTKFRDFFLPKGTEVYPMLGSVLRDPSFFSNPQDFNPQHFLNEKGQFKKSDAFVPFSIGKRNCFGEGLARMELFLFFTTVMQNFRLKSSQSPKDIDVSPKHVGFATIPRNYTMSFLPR
Description: Inhibition of CYP2A6 in human liver microsomes assessed as residual activity at 10 uM using coumarin as substrate preincubated for 5 mins followed by NADPH addition and measured after 15 mins by LC-MS/MS analysis relative to control. It counts as ADME. The conditions noted are these: probe coumarin, read-out: Activity.

The test system of series [6] is SK-BR-3. Description: Antiproliferative activity against HER2-dependant human SKBR3 cells after 72 hrs by EZ-Cytox assay. Format: ADME, cell-based. To be noted: SK-BR-3, 72 h.
In series [7] the target is hERG (KCNH2) (Homo sapiens, UniProt Q12809). Description: Inhibition of human ERG expressed in HEK cell at 10 uM at -70 mV holding potential by patch clamp method relative to control. To be noted: HEK cells that express hERG.
Chain of hERG (KCNH2) (Q12809 whole entry): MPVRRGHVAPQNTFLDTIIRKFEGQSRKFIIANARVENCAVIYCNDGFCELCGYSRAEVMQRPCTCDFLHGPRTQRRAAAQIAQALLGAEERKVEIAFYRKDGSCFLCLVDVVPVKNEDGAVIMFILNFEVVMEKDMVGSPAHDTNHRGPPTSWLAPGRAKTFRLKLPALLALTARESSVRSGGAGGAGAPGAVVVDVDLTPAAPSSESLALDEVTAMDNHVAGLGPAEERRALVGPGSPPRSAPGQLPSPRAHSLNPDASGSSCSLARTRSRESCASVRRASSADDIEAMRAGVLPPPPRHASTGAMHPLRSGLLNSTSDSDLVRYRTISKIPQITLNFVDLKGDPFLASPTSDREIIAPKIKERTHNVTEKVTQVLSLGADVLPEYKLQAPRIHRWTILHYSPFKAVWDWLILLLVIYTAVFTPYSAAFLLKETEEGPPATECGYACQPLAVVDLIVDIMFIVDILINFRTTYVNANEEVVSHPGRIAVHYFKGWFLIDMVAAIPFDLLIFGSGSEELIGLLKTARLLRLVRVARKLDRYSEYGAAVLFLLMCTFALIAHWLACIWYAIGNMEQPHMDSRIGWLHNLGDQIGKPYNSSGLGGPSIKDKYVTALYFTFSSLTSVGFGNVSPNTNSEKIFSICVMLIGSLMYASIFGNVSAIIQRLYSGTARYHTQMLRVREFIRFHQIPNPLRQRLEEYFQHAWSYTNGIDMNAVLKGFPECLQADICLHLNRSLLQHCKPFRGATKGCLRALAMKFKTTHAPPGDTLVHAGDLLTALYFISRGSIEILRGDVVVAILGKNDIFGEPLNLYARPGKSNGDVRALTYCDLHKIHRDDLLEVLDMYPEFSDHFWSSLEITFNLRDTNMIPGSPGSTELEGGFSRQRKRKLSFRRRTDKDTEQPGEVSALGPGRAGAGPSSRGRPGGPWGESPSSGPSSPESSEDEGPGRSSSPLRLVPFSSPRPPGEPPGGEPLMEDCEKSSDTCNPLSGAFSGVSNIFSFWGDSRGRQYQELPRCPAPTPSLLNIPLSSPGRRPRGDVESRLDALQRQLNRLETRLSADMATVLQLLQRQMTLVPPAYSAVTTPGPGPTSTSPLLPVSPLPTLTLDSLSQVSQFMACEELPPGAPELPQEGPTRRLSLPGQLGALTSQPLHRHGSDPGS
The target of series [8] is T3, CYP2B6 (Homo sapiens, UniProt P20813).
T3 sequence (P20813 whole entry): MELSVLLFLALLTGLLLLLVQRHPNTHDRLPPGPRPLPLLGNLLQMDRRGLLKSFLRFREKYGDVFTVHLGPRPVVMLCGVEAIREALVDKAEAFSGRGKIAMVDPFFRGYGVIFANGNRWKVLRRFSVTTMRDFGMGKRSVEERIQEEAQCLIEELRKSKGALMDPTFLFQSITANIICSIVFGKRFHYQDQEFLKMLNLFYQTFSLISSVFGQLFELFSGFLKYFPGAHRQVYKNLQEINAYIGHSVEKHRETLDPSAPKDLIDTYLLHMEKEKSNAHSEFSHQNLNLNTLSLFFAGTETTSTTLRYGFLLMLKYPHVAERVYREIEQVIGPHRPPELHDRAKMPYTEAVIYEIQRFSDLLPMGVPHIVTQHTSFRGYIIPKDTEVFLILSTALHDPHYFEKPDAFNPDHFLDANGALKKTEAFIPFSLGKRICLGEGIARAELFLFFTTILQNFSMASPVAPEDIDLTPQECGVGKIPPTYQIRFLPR
Briefly: Inhibition of CYP2B6 in human liver microsomes assessed as residual activity at 10 uM using bupropion as substrate preincubated for 5 mins followed by NADPH addition and measured after 15 mins by LC-MS/MS analysis relative to control. It counts as ADME. The conditions noted are these: probe bupropion, read-out: Activity.

In series [9] the test system is A549. Briefly: Antiproliferative activity against human A549 cells harboring wild-type EGFR after 72 hrs by EZ-Cytox assay. To be noted: A549, 72 h. Format: ADME, cell-based.
A short description of series [10]: Safety index, ratio of compound IC50 to afatinib IC50 for antiproliferative activity against HER2-dependant human SKBR3 cells. It counts as cell-based. To be noted: SK-BR-3 cells (HER2-dependent), read-out: Ratio IC50.
Series [11] concerns the target CYP2C19 (Homo sapiens, UniProt P33261). Description: Inhibition of CYP2C19 in human liver microsomes assessed as residual activity at 10 uM using S-mephenytoin as substrate preincubated for 5 mins followed by NADPH addition and measured after 15 mins by LC-MS/MS analysis relative to control. It counts as ADME. The conditions noted are these: probe S-mephenytoin, read-out: Activity.

Chain of Epidermal growth factor receptor (P00533 whole entry): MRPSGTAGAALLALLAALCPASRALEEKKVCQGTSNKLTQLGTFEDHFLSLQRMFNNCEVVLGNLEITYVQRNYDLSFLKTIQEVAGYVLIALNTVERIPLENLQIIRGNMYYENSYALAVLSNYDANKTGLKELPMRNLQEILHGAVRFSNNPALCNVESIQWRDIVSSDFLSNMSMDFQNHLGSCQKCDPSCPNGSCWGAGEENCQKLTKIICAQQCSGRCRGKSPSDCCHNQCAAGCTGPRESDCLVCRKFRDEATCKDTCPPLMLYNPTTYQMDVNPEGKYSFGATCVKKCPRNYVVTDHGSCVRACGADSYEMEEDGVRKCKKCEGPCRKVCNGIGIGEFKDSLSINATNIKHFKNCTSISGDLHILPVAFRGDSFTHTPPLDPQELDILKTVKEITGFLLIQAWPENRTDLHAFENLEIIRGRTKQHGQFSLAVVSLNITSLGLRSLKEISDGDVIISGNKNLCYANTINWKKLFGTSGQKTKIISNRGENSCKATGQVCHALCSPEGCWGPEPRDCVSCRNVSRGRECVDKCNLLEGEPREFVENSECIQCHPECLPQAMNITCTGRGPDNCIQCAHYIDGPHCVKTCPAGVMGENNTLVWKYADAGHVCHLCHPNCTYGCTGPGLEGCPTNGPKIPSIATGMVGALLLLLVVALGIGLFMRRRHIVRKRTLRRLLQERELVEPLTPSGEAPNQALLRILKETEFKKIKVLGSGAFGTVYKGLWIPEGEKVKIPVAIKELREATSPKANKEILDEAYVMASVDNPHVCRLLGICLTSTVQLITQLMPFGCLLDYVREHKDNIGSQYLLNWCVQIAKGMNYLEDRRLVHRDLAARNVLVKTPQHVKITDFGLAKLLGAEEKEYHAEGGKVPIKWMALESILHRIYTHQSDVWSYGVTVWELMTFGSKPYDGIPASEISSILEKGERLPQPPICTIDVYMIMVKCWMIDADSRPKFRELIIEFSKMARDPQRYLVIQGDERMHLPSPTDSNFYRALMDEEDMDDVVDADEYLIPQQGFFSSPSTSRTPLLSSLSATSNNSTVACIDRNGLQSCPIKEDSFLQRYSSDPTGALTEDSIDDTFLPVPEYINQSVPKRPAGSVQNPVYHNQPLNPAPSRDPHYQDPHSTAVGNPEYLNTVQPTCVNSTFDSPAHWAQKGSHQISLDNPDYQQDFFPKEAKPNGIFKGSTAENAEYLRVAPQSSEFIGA
Chain of CYP2C19 (P33261 whole entry): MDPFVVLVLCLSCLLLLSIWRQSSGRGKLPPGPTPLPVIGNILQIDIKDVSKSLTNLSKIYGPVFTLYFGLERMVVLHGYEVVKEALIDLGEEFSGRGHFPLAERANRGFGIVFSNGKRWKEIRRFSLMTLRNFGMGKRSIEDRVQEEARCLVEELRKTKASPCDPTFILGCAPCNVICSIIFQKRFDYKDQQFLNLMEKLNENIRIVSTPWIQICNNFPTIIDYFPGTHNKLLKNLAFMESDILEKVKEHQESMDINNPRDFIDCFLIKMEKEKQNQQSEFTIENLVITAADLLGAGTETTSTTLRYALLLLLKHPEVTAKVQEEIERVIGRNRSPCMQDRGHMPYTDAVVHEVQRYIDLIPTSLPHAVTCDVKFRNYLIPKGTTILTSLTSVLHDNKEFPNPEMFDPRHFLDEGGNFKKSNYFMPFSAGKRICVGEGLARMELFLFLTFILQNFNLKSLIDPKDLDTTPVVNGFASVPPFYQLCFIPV
Chain of CYP2C9 (P11712 whole entry): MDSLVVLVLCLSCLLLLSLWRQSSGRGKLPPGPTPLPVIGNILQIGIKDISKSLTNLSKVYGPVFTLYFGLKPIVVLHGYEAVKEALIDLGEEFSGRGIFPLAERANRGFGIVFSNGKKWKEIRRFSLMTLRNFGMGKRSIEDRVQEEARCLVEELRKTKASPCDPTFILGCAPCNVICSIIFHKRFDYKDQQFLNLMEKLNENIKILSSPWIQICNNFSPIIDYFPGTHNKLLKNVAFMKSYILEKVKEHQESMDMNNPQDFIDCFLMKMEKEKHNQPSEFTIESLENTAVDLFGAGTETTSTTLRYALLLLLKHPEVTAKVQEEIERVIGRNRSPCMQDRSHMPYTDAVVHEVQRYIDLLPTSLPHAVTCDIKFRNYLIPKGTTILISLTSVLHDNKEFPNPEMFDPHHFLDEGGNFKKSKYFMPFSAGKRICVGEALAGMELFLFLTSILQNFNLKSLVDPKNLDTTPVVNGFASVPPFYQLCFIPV

Turning to `C=CC(=O)Nc1cc2c(Nc3ccc(F)c(Cl)c3)ncnc2cc1OCc1cn(Cc2cccc(F)c2)nn1`, the activity at 0.25 h, 10 µM in series [1] was determined as 35.6%; in [2], 11.8%; in series [3] it was 59%; in series [5], 91%; in series [8] it was 67.1%; in series [11], 53.5%. Also, the IC50 in [4] was 0.068 µM; in [6] it was 0.115 µM; in series [9] it was 5.5 µM. Further, 10 µM produced 20.7% inhibition in series [7]. Moreover, the selectivity ratio in series [10] is greater than 95.
Turning to `C=CC(=O)Nc1cc2c(Nc3ccc(F)c(Cl)c3)ncnc2cc1OCc1cn(Cc2ccc(Cl)cc2)nn1`, the activity at 0.25 h, 10 µM in series [1] turned out to be 48.7%; in [2], 16.3%; in series [3] it was 63.4%; in series [5], 89%; in series [8] it was 78.8%; in series [11] it was 56.4%. For the same molecule, the IC50 in series [4] turned out to be 0.062 µM; in series [6], 0.266 µM; in series [9] it was 2.04 µM. This molecule displayed an inhibition at 10 µM in series [7] of 33.6%. The selectivity ratio in series [10] was greater than 95.
For `C=CC(=O)Nc1cc2c(Nc3ccc(F)c(Cl)c3)ncnc2cc1OCc1cn(Cc2ccc(F)cc2)nn1`, the activity at 0.25 h, 10 µM is 36.4% in series [1]; 13.5% in series [2]; 60.9% in [3]; 82.7% in [5]; 67.9% in series [8]; 51.1% in series [11]. In addition, the values for the IC50 in [4], in [6] and in [9] were 0.045 µM, 0.143 µM and 4.31 µM, respectively. In series [7], this molecule gave an inhibition at 10 µM of 46.2%. The selectivity ratio in series [10] is greater than 95.
